Read-outs that look alike come from different tables or passages of the source.
Assays:
[1] = biological target: T1, Dα1/Dβ1 nAChR (Drosophila melanogaster, UniProt P04755+P09478); test: cell-based; set-up: species or system Xenopus laevis oocytes; details: Oocyte
T1 sequence (P09478 22-567): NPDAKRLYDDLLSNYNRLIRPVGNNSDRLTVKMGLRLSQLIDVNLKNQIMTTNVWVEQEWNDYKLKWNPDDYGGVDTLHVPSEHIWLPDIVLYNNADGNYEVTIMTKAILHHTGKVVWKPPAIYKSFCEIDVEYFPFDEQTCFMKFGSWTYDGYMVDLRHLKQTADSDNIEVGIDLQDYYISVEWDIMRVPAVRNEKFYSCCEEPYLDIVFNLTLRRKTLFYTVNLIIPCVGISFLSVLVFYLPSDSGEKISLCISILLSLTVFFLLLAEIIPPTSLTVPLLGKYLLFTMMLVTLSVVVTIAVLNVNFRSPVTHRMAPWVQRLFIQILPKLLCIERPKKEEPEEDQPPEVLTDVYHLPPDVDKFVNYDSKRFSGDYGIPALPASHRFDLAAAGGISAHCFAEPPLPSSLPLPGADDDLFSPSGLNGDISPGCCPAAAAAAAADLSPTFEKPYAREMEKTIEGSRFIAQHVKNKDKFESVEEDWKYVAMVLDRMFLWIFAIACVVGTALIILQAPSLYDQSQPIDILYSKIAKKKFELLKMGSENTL
T1 sequence (P04755 25-521): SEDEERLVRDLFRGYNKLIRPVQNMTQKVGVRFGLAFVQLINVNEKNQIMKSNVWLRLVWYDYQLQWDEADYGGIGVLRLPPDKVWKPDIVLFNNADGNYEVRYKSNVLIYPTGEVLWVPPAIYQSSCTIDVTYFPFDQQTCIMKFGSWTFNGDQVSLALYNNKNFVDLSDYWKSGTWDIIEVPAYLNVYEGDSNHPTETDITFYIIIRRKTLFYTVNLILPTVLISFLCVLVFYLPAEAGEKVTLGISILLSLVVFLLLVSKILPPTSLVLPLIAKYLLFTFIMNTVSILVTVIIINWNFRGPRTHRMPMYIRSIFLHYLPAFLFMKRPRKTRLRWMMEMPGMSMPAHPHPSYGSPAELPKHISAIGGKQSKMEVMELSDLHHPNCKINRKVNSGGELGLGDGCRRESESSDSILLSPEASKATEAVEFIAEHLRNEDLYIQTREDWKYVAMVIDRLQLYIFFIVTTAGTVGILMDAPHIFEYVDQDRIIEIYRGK

[2] = biological target: T2, Amα1/Amα8/Amβ1 nAChR (Apis mellifera, UniProt A0A7M7MMZ9+A0A8U0WQ70+A0A8U0WQC0); test: cell-based; set-up: species or system Xenopus laevis oocytes; details: Oocyte
T2 sequence (A0A7M7MMZ9 44-627): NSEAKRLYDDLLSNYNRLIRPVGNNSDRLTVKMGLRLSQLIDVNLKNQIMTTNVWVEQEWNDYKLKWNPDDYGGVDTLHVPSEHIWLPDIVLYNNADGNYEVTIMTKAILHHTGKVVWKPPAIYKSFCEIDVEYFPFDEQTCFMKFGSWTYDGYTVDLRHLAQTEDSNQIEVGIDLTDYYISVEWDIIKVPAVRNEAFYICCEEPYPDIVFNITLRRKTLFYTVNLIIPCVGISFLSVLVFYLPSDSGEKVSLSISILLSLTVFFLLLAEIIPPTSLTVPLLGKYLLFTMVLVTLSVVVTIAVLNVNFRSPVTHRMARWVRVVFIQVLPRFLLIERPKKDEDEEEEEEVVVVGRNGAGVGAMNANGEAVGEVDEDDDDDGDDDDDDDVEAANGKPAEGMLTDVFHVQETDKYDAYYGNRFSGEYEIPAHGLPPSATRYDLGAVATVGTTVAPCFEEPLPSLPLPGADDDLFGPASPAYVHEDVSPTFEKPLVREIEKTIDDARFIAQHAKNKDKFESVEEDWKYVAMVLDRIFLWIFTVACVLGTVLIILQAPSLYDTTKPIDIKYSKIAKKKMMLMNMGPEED
T2 sequence (A0A8U0WQ70 25-537): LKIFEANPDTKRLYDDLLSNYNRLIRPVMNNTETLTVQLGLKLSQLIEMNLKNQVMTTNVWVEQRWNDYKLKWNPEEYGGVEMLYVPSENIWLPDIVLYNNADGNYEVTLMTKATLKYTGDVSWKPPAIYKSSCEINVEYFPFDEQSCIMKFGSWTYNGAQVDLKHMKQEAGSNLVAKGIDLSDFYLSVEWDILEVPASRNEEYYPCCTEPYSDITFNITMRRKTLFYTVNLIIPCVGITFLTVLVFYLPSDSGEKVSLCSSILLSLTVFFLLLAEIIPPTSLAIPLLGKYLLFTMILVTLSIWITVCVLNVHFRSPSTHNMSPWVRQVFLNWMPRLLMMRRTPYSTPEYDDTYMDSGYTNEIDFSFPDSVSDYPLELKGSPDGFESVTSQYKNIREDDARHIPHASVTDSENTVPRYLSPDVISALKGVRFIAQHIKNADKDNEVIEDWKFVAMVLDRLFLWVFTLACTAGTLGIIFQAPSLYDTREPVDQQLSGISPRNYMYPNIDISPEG
T2 sequence (A0A8U0WQC0 25-520): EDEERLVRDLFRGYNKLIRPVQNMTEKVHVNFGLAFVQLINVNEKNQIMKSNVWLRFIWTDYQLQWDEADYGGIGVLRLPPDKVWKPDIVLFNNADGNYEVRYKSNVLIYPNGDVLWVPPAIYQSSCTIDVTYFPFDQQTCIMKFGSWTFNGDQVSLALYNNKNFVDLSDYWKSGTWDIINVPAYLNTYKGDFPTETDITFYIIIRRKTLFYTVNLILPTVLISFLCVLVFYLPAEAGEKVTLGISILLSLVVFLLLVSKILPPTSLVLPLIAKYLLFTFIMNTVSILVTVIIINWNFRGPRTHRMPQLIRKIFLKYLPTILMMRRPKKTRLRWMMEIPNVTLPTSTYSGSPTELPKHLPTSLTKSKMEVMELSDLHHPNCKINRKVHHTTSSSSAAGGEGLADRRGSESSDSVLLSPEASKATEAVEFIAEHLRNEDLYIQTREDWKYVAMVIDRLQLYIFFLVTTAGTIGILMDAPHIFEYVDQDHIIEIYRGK

With N#C/N=C1\SCCN1Cc1ccc(Cl)nc1 [thiacloprid] the Emax ([1]; read-out: Thiacloprid / Imax) was 6.5 ± 0.5% and the Emax ([2]; read-out: Thiacloprid / Imax) was 5.8 ± 0.6%.

In the case of CN/C(=N\[N+](=O)[O-])NCc1cnc(Cl)s1 [clothianidin], the Emax ([1]; read-out: Clothianidin / Imax) is reported as 29.6 ± 1.3% and the Emax ([2]; read-out: Clothianidin / Imax) is reported as 78.8 ± 2%.

In the case of O=[N+]([O-])NC1=NCCN1Cc1ccc(Cl)nc1 [imidacloprid], the Emax ([1]; read-out: Imidacloprid / Imax) is reported as 11.2 ± 0.9% and the Emax ([2]; read-out: Imidacloprid / Imax) is reported as 7.5 ± 0.4%.

— article PMC7368294 (Proceedings of the National Academy of Sciences of the …, 2020)
